Experimental data published in patent US4442090A, “Absorption-promoting compounds, compositions thereof with pharmaceuticals and/or bases for rectal administration and method of use” (Kyoto Yakuhin Kogyo Kabushiki Kaisha, priority 1980, dated 1984).
“And” between values parts separate entries of the source, which are not always exact repeats. Equal entries are not always repeated.

Legend:
[1] = Urinary excretions of β-lactam antibiotics after rectal suppository (rabbit); type: in vivo; conditions: Compound (I) 5%, Witepsol H-15
Protocol: The absorption into the circulation through the rectum of the rectal suppositories thus prepared was determined by measuring urinary excretion of the pharmacologically-active substance.
Thus, Sarcina lutea and Bacillus subtilis were used as assay organisms for penicillins and cephalosporins, respectively, and the assays were performed by the paper disk method (cultivation at 37° C. for from 15 to 20 hours).

[2] = Urinary excretions of AB-PC after administration of AB-PC rectal suppository (human); type: in vivo; conditions: AB-PC 125 mg (potency); for Urinary excretions (%) 0-2 (hr.) / Urinary excretions (%) 2-4 (hr.) / Urinary excretions (%) 4-6 (hr.) / Urinary excretions (%) Total (0-6 hr.): Compound (I) 10%, Witepsol H-15, Table 3
Protocol: The thus-obtained suppositories were administered to healthy adult male humans from the anus, and the urinary excretions of AB-PC were determined.

[3] = Blood glucose level after rectal insulin administration (rabbit); type: in vivo; conditions: rectal suppository, Insulin 6 I. U., Compound (I) 5%
From the text: To measure glucose levels, blood samples were taken from the auricular vein at timed intervals and assayed by the glucose oxidase method.
The urinary excretion values in Tables 1 to 5 are percentages based on the dose administered. The blood glucose levels in Table 6 are relative blood glucose levels when the blood glucose level at hour 0 is considered to be 100%.

[4] = Urinary excretions of peptide drugs after rectal suppository (rabbit); conditions: Colistin Sodium Methanesulfonate 150,000 IU, Compound (I) 5%, Witepsol H-15
Protocol: The thus-obtained suppositories were administered to rabbits from the anus, and the urinary excretions of the pharmacologically-active substance were determined.
(§1) Each rectal suppository was administered to a depth of 2 cm from the anus of a rabbit fasted 24 hours.
(§2) To measure the urinary excretions, urine samples were collected after administration at timed intervals, diluted and assayed by the biological assay procedure.
Thus, Escherichia coli was used as assay organism and the assays were performed by the cylinder plate method (cultivation at 37° C. for 15 to 20 hours).

[5] = Urinary excretions of aminoglycoside antibiotics after rectal suppository (rabbit); conditions: Compound (I) 5%, Witepsol H-15
Protocol: The thus-obtained suppositories were administered to rabbits and the urinary excretions of the pharmacologically-active substance were determined.
as §1, §2
Thus, Bacillus subtilis was used as assay organism and the assays were performed by the cylinder plate method (cultivation at 37° C. for 15 to 20 hours).

[6] = Witepsol H-15, relative to hour 0 = 100%
[7] = Fortimicin sulfate 125 mg (potency)
[8] = Gentamicin sulfate 125 mg (potency)

O=C(O)CCCCCCCCCCCCC(=O)O [Compound 7-Na, 1,12-Dodecamethylene dicarboxylic acid]
Urinary excretions (%) 0-2 hr. ([1]; 6059-S 125 mg (potency)): 42.2%
Urinary excretions (%) 2-4 hr. ([1]; 6059-S 125 mg (potency)): 8.8%
Urinary excretions (%) 4-6 hr. ([1]; 6059-S 125 mg (potency)): 1.0%
Urinary excretions (%) Total (0-6 hr.) ([1]; 6059-S 125 mg (potency)): 52.0%
Urinary excretions of AB-PC (%) (0-6 hr.) ([2]; added compound 10%, Witepsol H-15, % of dose): 22.6%

CCCCCCCC(=O)N[C@@H](Cc1ccccc1)C(=O)O [Compound 23-Na, N--Capryloyl-L-phenylalanine]
Blood glucose level 0 hr. ([3]; Witepsol H-15, baseline, level at hour 0 considered 100%): 100%
Blood glucose level 0.5 hr. [3, 6]: 59.0%
Blood glucose level 2.0 hr. [3, 6]: 103.0%
Blood glucose level […]. [3, 6]: 69.5%
Urinary excretions (%) 0-2 (hr.) [2]: 24.0%
Urinary excretions (%) 2-4 (hr.) [2]: 3.0%
Urinary excretions (%) 4-6 (hr.) [2]: 1.2%
Urinary excretions (%) Total (0-6 hr.) [2]: 28.2%
Urinary excretions (%) 0-2 hr. [4]: 21.2% and 18.5%
Urinary excretions (%) 2-4 hr. [4]: 10.0% and 8.0%
Urinary excretions (%) 4-6 hr. [4]: 1.2% and 0.8%
Urinary excretions (%) Total (0-6 hr.) [4]: 32.4% and 27.3%
Urinary excretions (%) 0-2 hr. [5, 7]: 46.0%
Urinary excretions (%) 2-4 hr. [5, 7]: 8.0%
Urinary excretions (%) 4-6 hr. [5, 7]: 2.0%
Urinary excretions (%) Total (0-6 hr.) [5, 7]: 56.0%
Urinary excretions (%) 0-2 hr. [5, 8]: 45.0%
Urinary excretions (%) 2-4 hr. [5, 8]: 6.0%
Urinary excretions (%) 4-6 hr. [5, 8]: 1.5%
Urinary excretions (%) Total (0-6 hr.) [5, 8]: 52.5%

CCCCCCCCCC(=O)N[C@H](C(=O)O)C(C)C [Compound 24-Na, N--Caprinoyl-L-valine]
Urinary excretions (%) 0-2 hr. ([1]; Cefotaxime 125 mg (potency)): 31.5%
Urinary excretions (%) 2-4 hr. ([1]; Cefotaxime 125 mg (potency)): 10.0%
Urinary excretions (%) 4-6 hr. ([1]; Cefotaxime 125 mg (potency)): 0.8%
Urinary excretions (%) Total (0-6 hr.) ([1]; Cefotaxime 125 mg (potency)): 42.3%
Urinary excretions (%) 0-2 hr. ([1]; FK-749 125 mg (potency)): 45.0%
Urinary excretions (%) 2-4 hr. ([1]; FK-749 125 mg (potency)): 5.6%
Urinary excretions (%) 4-6 hr. ([1]; FK-749 125 mg (potency)): 2.5%
Urinary excretions (%) Total (0-6 hr.) ([1]; FK-749 125 mg (potency)): 53.1%
Urinary excretions (%) 0-2 (hr.) [2]: 18.0%
Urinary excretions (%) 2-4 (hr.) [2]: 5.1%
Urinary excretions (%) 4-6 (hr.) [2]: 1.0%
Urinary excretions (%) Total (0-6 hr.) [2]: 23.1%

CCCCCCCCCCCCCC(=O)N[C@H](C(=O)O)[C@@H](C)O [Compound 26-Na, N--Myristoyl-L-threonine]
Urinary excretions (%) 0-2 hr. ([1]; Cefsulodin 125 mg (potency)): 41.1%
Urinary excretions (%) 2-4 hr. ([1]; Cefsulodin 125 mg (potency)): 8.2%
Urinary excretions (%) 4-6 hr. ([1]; Cefsulodin 125 mg (potency)): 0.5%
Urinary excretions (%) Total (0-6 hr.) ([1]; Cefsulodin 125 mg (potency)): 49.8%
Urinary excretions (%) 0-2 hr. ([1]; Sulbenicillin 125 mg (potency)): 40.0%
Urinary excretions (%) 2-4 hr. ([1]; Sulbenicillin 125 mg (potency)): 5.1%
Urinary excretions (%) 4-6 hr. ([1]; Sulbenicillin 125 mg (potency)): 1.0%
Urinary excretions (%) Total (0-6 hr.) ([1]; Sulbenicillin 125 mg (potency)): 46.2%
Urinary excretions (%) 0-2 (hr.) [2]: 26.1%
Urinary excretions (%) 2-4 (hr.) [2]: 3.0%
Urinary excretions (%) 4-6 (hr.) [2]: 0.9%
Urinary excretions (%) Total (0-6 hr.) [2]: 30.0%

CCCCCCCCCCCCCCCC(=O)N[C@@H](CC(=O)O)C(=O)O [Compound 27-Na, N--Palmitoyl-L-aspartic acid]
Urinary excretions (%) 0-2 hr. ([1]; Cefotiam 125 mg (potency)): 35.2%
Urinary excretions (%) 2-4 hr. ([1]; Cefotiam 125 mg (potency)): 6.2%
Urinary excretions (%) 4-6 hr. ([1]; Cefotiam 125 mg (potency)): 0.5%
Urinary excretions (%) Total (0-6 hr.) ([1]; Cefotiam 125 mg (potency)): 41.9%
Urinary excretions (%) 0-2 (hr.) [2]: 22.0%
Urinary excretions (%) 2-4 (hr.) [2]: 4.1%
Urinary excretions (%) 4-6 (hr.) [2]: 0.7%
Urinary excretions (%) Total (0-6 hr.) [2]: 26.8%
